Legend:
Assay in all cases: Colony coloration on fresh and stored media, Example 10 (6-chloro-3-indolyl-β-N-acetylglucosaminide, Columbia)
Format in all cases: cell-based
Listeria ivanovii 18 = test system: Listeria ivanovii 18; design: key to intensity of coloration (arbitrary scale): 0: no activity; 0.1: trace of coloration; 0.5: very pale coloration; 1: distinct coloration of low intensity; 2: clear coloration of medium intensity; 3: intense coloration; 4: very intense coloration; —: absence of coloration or intensity; key to color: M: magenta; —: colorless
Experimental: (§1) Two stock solutions of substrate were prepared, one having a concentration of 50 g/l in DMF and the other having a concentration of 50 g/l in a mixture of DMF (40%) and Tween® 20 (60%). A volume corresponding to a final concentration of 175 mg/l of substrate was then added to a supercooled gelled medium, namely Columbia medium not supplemented with blood. […] After three weeks, six weeks, nine weeks and twelve weeks, two media like those described above were prepared for immediate use.
(§2) Microorganisms originating from the Applicant's collection were inoculated from a 0.5 McFarland suspension, by isolation in three quadrants, onto the two media prepared for immediate use and the two media stored at +4° C. The dishes were incubated at 37° C. for 48 hours. The colonies formed were examined visually after 24 and 48 hours of incubation. The coloration of these colonies and the intensity of this coloration were noted.

[1] = test system: Listeria monocytogenes 23; design: key to intensity of coloration (arbitrary scale): 0: no activity; 0.1: trace of coloration; 0.5: very pale coloration; 1: distinct coloration of low intensity; 2: clear coloration of medium intensity; 3: intense coloration; 4: very intense coloration; —: absence of coloration or intensity; key to color: M: magenta; —: colorless
Experimental: as §1, §2

[2] = test system: Pseudomonas aeruginosa 165; design: key: M: magenta; —: colorless
Experimental: as §1, §2

Staphylococcus aureus 20 = test system: Staphylococcus aureus 20; design: key: M: magenta; —: colorless
Experimental: as §1, §2

[3] = IT 24 h, fresh medium, DMF Tween 20, 6-week comparison
[4] = IT 24 h, fresh medium, DMF Tween 20, 9-week comparison
[5] = IT 24 h, fresh medium, DMF Tween 20, 12-week comparison
[6] = IT 24 h, fresh medium, DMF, 6-week comparison
[7] = IT 24 h, fresh medium, DMF, 9-week comparison
[8] = IT 24 h, fresh medium, DMF, 12-week comparison
[9] = IT 24 h, medium stored for 6 weeks at +4° C., DMF
[10] = IT 24 h, medium stored for 6 weeks at +4° C., DMF Tween 20
[11] = IT 24 h, medium stored for 9 weeks at +4° C., DMF
[12] = IT 24 h, medium stored for 9 weeks at +4° C., DMF Tween 20
[13] = IT 24 h, medium stored for 12 weeks at +4° C., DMF
[14] = IT 24 h, medium stored for 12 weeks at +4° C., DMF Tween 20
[15] = IT 48 h, fresh medium, DMF Tween 20, 6-week comparison
[16] = IT 48 h, fresh medium, DMF Tween 20, 9-week comparison
[17] = IT 48 h, fresh medium, DMF Tween 20, 12-week comparison
[18] = IT 48 h, fresh medium, DMF, 6-week comparison
[19] = IT 48 h, fresh medium, DMF, 9-week comparison
[20] = IT 48 h, fresh medium, DMF, 12-week comparison
[21] = IT 48 h, medium stored for 6 weeks at +4° C., DMF
[22] = IT 48 h, medium stored for 6 weeks at +4° C., DMF Tween 20
[23] = IT 48 h, medium stored for 9 weeks at +4° C., DMF
[24] = IT 48 h, medium stored for 9 weeks at +4° C., DMF Tween 20
[25] = IT 48 h, medium stored for 12 weeks at +4° C., DMF
[26] = IT 48 h, medium stored for 12 weeks at +4° C., DMF Tween 20

For `CC(=O)N[C@H]1[C@H](Oc2c[nH]c3cc(Cl)ccc23)O[C@H](CO)[C@@H](O)[C@@H]1O`, the color (Listeria ivanovii 18; [3]) was “M”, the “intensity of coloration (arbitrary scale)” value (from here on “intensity of coloration”) (Listeria ivanovii 18; [3]) was 1.5 and the color (Listeria ivanovii 18; [4]) was “M”. For the same compound, the “intensity of coloration” value (Listeria ivanovii 18; [4]) was 1.5, the color (Listeria ivanovii 18; [5]) was “M” and the “intensity of coloration” value (Listeria ivanovii 18; [5]) was 1.5. For the same compound, the color (Listeria ivanovii 18; [6]) was “M”, the “intensity of coloration” value (Listeria ivanovii 18; [6]) was 1.5 and the color (Listeria ivanovii 18; [7]) was “M”. The “intensity of coloration” value (Listeria ivanovii 18; [7]) was 1.5, the color (Listeria ivanovii 18; [8]) was “M” and the “intensity of coloration” value (Listeria ivanovii 18; [8]) was 1.5. The color (Listeria ivanovii 18; [9]) was “M”, the “intensity of coloration” value (Listeria ivanovii 18; [9]) was 0.5 and the color (Listeria ivanovii 18; [10]) was “M”. For the same compound, the “intensity of coloration” value (Listeria ivanovii 18; [10]) was 1.5, the color (Listeria ivanovii 18; [11]) was “M” and the color (Listeria ivanovii 18; [12]) was “M”. For the same compound, the “intensity of coloration” value (Listeria ivanovii 18; [12]) was 1, the color (Listeria ivanovii 18; [13]) was “M” and the color (Listeria ivanovii 18; [14]) was “M”. The “intensity of coloration” value (Listeria ivanovii 18; [14]) was 1, the color (Listeria ivanovii 18; [15]) was “M” and the “intensity of coloration” value (Listeria ivanovii 18; [15]) was 2.5. For the same compound, the color (Listeria ivanovii 18; [16]) was “M”, the “intensity of coloration” value (Listeria ivanovii 18; [16]) was 2.5 and the color (Listeria ivanovii 18; [17]) was “M”. The “intensity of coloration” value (Listeria ivanovii 18; [17]) was 2.5, the color (Listeria ivanovii 18; [18]) was “M” and the “intensity of coloration” value (Listeria ivanovii 18; [18]) was 2.5. The color (Listeria ivanovii 18; [19]) was “M”, the “intensity of coloration” value (Listeria ivanovii 18; [19]) was 2.5 and the color (Listeria ivanovii 18; [20]) was “M”. For the same compound, the “intensity of coloration” value (Listeria ivanovii 18; [20]) was 2.5, the color (Listeria ivanovii 18; [21]) was “M” and the “intensity of coloration” value (Listeria ivanovii 18; [21]) was 2. The color (Listeria ivanovii 18; [22]) was “M”, the “intensity of coloration” value (Listeria ivanovii 18; [22]) was 2.5 and the color (Listeria ivanovii 18; [23]) was “M”. For the same compound, the “intensity of coloration” value (Listeria ivanovii 18; [23]) was 0.5, the color (Listeria ivanovii 18; [24]) was “M” and the “intensity of coloration” value (Listeria ivanovii 18; [24]) was 2.5. For the same compound, the color (Listeria ivanovii 18; [25]) was “M”, the color (Listeria ivanovii 18; [26]) was “M” and the “intensity of coloration” value (Listeria ivanovii 18; [26]) was 2. The color [1, 3] was “M”, the “intensity of coloration” value [1, 3] was 2 and the color [1, 4] was “M”. The “intensity of coloration” value [1, 4] was 2, the color [1, 5] was “M” and the “intensity of coloration” value [1, 5] was 2. The color [1, 6] was “M”, the “intensity of coloration” value [1, 6] was 2 and the color [1, 7] was “M”. The “intensity of coloration” value [1, 7] was 2, the color [1, 8] was “M” and the “intensity of coloration” value [1, 8] was 2. The color [1, 9] was “M”, the “intensity of coloration” value [1, 9] was 1 and the color [1, 10] was “M”. The “intensity of coloration” value [1, 10] was 2, the color [1, 11] was “M” and the “intensity of coloration” value [1, 11] was 0.5. For the same compound, the color [1, 12] was “M”, the “intensity of coloration” value [1, 12] was 1 and the color [1, 13] was “M”. The color [1, 14] was “M”, the “intensity of coloration” value [1, 14] was 1 and the color [1, 15] was “M”. For the same compound, the “intensity of coloration” value [1, 15] was 3, the color [1, 16] was “M” and the “intensity of coloration” value [1, 16] was 3. For the same compound, the color [1, 17] was “M”, the “intensity of coloration” value [1, 17] was 3 and the color [1, 18] was “M”. The “intensity of coloration” value [1, 18] was 3, the color [1, 19] was “M” and the “intensity of coloration” value [1, 19] was 3. For the same compound, the color [1, 20] was “M”, the “intensity of coloration” value [1, 20] was 3 and the color [1, 21] was “M”. The “intensity of coloration” value [1, 21] was 2, the color [1, 22] was “M” and the “intensity of coloration” value [1, 22] was 3. The color [1, 23] was “M”, the “intensity of coloration” value [1, 23] was 0.5 and the color [1, 24] was “M”. For the same compound, the “intensity of coloration” value [1, 24] was 2, the color [1, 25] was “M” and the color [1, 26] was “M”. For the same compound, the “intensity of coloration” value [1, 26] was 2, the color [2, 3] was “—” and the color [2, 4] was “—”. The color [2, 5] was “—”, the color [2, 6] was “—” and the color [2, 7] was “—”. The color [2, 8] was “—”, the color [2, 9] was “—” and the color [2, 10] was “—”. The color [2, 11] was “—”, the color [2, 12] was “—” and the color [2, 13] was “—”. For the same compound, the color [2, 14] was “—”, the color [2, 15] was “—” and the color [2, 16] was “—”. For the same compound, the color [2, 17] was “—”, the color [2, 18] was “—” and the color [2, 19] was “—”. For the same compound, the color [2, 20] was “—”, the color [2, 21] was “—” and the color [2, 22] was “—”. The color [2, 23] was “—”, the color [2, 24] was “—” and the color [2, 25] was “—”. The color [2, 26] was “—”, the color (Staphylococcus aureus 20; [3]) was “—” and the color (Staphylococcus aureus 20; [4]) was “—”. The color (Staphylococcus aureus 20; [5]) was “—”, the color (Staphylococcus aureus 20; [6]) was “—” and the color (Staphylococcus aureus 20; [7]) was “—”. The color (Staphylococcus aureus 20; [8]) was “—”, the color (Staphylococcus aureus 20; [9]) was “—” and the color (Staphylococcus aureus 20; [10]) was “—”. For the same compound, the color (Staphylococcus aureus 20; [11]) was “—”, the color (Staphylococcus aureus 20; [12]) was “—” and the color (Staphylococcus aureus 20; [13]) was “—”. For the same compound, the color (Staphylococcus aureus 20; [14]) was “—”, the color (Staphylococcus aureus 20; [15]) was “—” and the color (Staphylococcus aureus 20; [16]) was “—”. For the same compound, the color (Staphylococcus aureus 20; [17]) was “—”, the color (Staphylococcus aureus 20; [18]) was “—” and the color (Staphylococcus aureus 20; [19]) was “—”. For the same compound, the color (Staphylococcus aureus 20; [20]) was “—”, the color (Staphylococcus aureus 20; [21]) was “—” and the color (Staphylococcus aureus 20; [22]) was “—”. For the same compound, the color (Staphylococcus aureus 20; [23]) was “—”, the color (Staphylococcus aureus 20; [24]) was “—” and the color (Staphylococcus aureus 20; [25]) was “—”. The color (Staphylococcus aureus 20; [26]) was “—”.
